Measured values from patent publication US11420922B2, “Hydroxylated tropolone inhibitors of nucleotidyl transferases in herpesvirus and Hepatitis B and uses therefor” (Saint Louis University, priority 2015, dated 2022).
pEC50: −log10 of the molar value. Entries after “also recorded” stand apart in the source; their conditions may differ. Like-named read-outs stand apart in the source and are kept apart here.

How the values were obtained:
HSV-1 = test: Anti-HSV-1 replication assay in Vero cells, titers by plaque assay; assay type: cell-based, herpes simplex virus 1; details: Human alphaherpesvirus 1, Vero; for log reduction at 5 µM / log reduction at 50 µM / pEC50: 24 h; for log reduction at 5 µM: read-out: HSV-1 Log suppression 5 μM; for log reduction at 50 µM: read-out: HSV-1 Log suppression 50 μM; for pEC50: read-out: HSV-1 EC50
Procedure: Vero cells were maintained in Dulbecco's modified Eagle's medium (DMEM) containing 3% newborn calf serum, 3% bovine growth serum, 2 mM L-glutamine and 100 IU/mL penicillin and 0.1 mg/mL streptomycin (P/S). HSV-1 #6 and HSV-2 #1 are de-identified clinical isolates from the Saint Louis University Hospital. Stocks were prepared after a single passage in cell culture and were titered by standard plaque assay (Knipe and Spang, 1982). Wild-type HSV-2 used in FIG. 3 was laboratory strain 333. […] Virus stocks were grown and titered on Vero cells (Morrison and Knipe, 1996).
(§1) Compounds to be screened were diluted in PBS supplemented to contain 2% newborn calf serum and 1% glutamine, and added in 100 μL volume to confluent cell monolayers in 24-well cluster plates. Immediately thereafter HSV-1 and HSV-2, diluted in the supplemented PBS medium, were added to the wells in 50 μl volume such that the final concentration of compound was 50 μM and 5 μM and the multiplicity of infection was 0.1. The plates were incubated at 37° C. for 1 hour and then virus-containing inoculum was removed and the wells were washed once in PBS. Compounds, diluted to 50 μM and 5 μM in DMEM supplemented to contain 2% newborn calf serum and 1% each penicillin/streptomycin, were added at 0.5 mL/well. Plates were incubated at 37° C. an additional 23 hr, and then the plates were visually inspected through a phase contrast microscope for cytopathic effect, and for toxic effect. […] The entire contents of each well were collected by scraping. Samples were frozen at −80° C., and then subsequently thawed, sonicated, and infectious virus titer was determined by standard plaque assay on Vero cell monolayers. Because the compounds were dissolved at 10 mM in 100% DMSO, equivalent dilutions of DMSO were added to additional wells as a control for effects of the diluent. Each experiment was repeated once. EC50 values were determined as above except that serial dilutions of the compound to be tested were prepared starting at 50 μM. The inhibitory values were calculated by non-linear curve-fitting in GraphPad Prism.

HSV-2 = test: Anti-HSV-2 replication assay in Vero cells, titers by plaque assay; assay type: cell-based, herpes simplex virus 2; details: for log reduction at 5 µM / log reduction at 50 µM / pEC50: Human alphaherpesvirus 2, Vero, 24 h; for log reduction at 5 µM: read-out: HSV-2 Log suppression 5 μM; for log reduction at 50 µM: read-out: HSV-2 Log suppression 50 μM; for inhibition of wild-type HSV-2, in words: laboratory strain, 24 hr, FIG. 4; for pEC50: read-out: HSV-2 EC50
[1] = system: TK-deficient mutant of HSV-2 strain 333, ΔTK-; test: Replication of acyclovir-resistant TK-deficient HSV-2 mutant in Vero cells; assay type: cell-based, herpes simplex virus 2; details: 5 μM, 24 hr, FIG. 4
Procedure: FIGS. 4A & 4B. Sensitivity of thymidine kinase-deficient HSV-2 to αHT compounds. […] Duplicate cultures were collected 24 hours post-infection and infectious virus titers were determined by plaque assay. Titers in compound-treated samples were subtracted from DMSO-treated samples. Values are the averages±one standard error of the mean. α-Hydroxytropolones inhibit an ACV-resistant mutant of HSV-2. […] Log10 suppression was determined relative to the diluent control. Data are the averages of data from duplicate samples±ranges from one of two independent experiments at each concentration.
Vero cells were maintained in Dulbecco's modified Eagle's medium (DMEM) containing 3% newborn calf serum, 3% bovine growth serum, 2 mM L-glutamine and 100 IU/mL penicillin and 0.1 mg/mL streptomycin (P/S). HSV-1 #6 and HSV-2 #1 are de-identified clinical isolates from the Saint Louis University Hospital. Stocks were prepared after a single passage in cell culture and were titered by standard plaque assay (Knipe and Spang, 1982). Wild-type HSV-2 used in FIG. 3 was laboratory strain 333. The TK-deficient mutant of HSV-2 strain 333, ΔTK-, contains a 180-bp KpnI-KpnI deletion in the UL23 open reading frame that abrogates TK activity (McDermott, et al, 1984). ΔTK- was the generous gift of Jim Smiley. Virus stocks were grown and titered on Vero cells (Morrison and Knipe, 1996).
HSV TK-deficient mutants are therefore insensitive to ACV. […] Vero cells were infected with a laboratory strain of HSV-2 and an engineered TK-deficient mutant of the same strain.

[2] = Quantitative Vero cell toxicity (MTT); assay type: cell-based; details: African green monkey, Vero cells
Procedure: (§2) Qualitative assessments of cytotoxicity were done visually by inspecting the cells in the primary screening assays. For the quantitative assays, cells were plated in 96-well plates at 1.0×10^4 per well. The next day the compounds were added at 0.78 to 100 μM in a final concentration of 1% (v/v) DMSO, and the cells were incubated for 24 hours under conditions identical to those employed for the viral replication inhibition assays. Mitochondrial toxicity was measured by incubating the cells with 0.25 mg/mL thiazolyl blue tetrazolium bromide (MTT, Sigma Aldrich Chemical Co.), the cultures were incubated for 60 min, metabolites were solubilized in acidic isopropanol, and absorbance was read at 570 nm. CC50 values were calculated by non-linear curve fitting using GraphPad Prism.
Quantitative toxicity measurements were conducted for all compounds that suppressed HSV replication by >2 log10 at 5 μM plus a number of compounds with lesser inhibitory activity for comparison. Toxicity was assessed by […]. Cells were plated in 96-well plates at 1.0×10^4 per well. The next day compound was added in concentrations ranging from 0.78 to 100 μM in a final concentration of 1% (v/v) DMSO. The cells were incubated for 24 h under conditions identical to those employed for the viral replication inhibition assays, and then mitochondrial activity was measured with the MTT assay (Sigma Aldrich) according to the manufacturer's instructions. Percent viability was determined for each compound concentration from the […], and then 50% cytotoxic concentrations (CC50) values were calculated by non-linear curve fitting using GraphPad Prism. Consistent with the subjective assessments of toxicity, all compounds selected for quantitative toxicity assessment had CC50 values≥50 μM under these conditions (Table 1).

HBV replication = test: Chou-Talalay combination of RNAseH inhibitors with Lamivudine against HBV replication; assay type: cell-based, Hepatitis B virus; details: CI <1.0 synergy, ~1.0 additive, >1.0 antagonism
Excerpt: Additive interactions are shown with the red line, synergistic interactions below the line, and antagonistic interactions are above the line.
Current nucleos(t)ide analog therapy for HBV has converted hepatitis type B from an implacably progressing illness to a controllable disease. However, patients are only very rarely cured, in part due to the incomplete inhibition of HBV replication. The inventors hypothesized that the novel RNaseH inhibitors would work synergistically with the existing nucleos(t)ide analogs because the two classes of drugs target physically distinct active sites on the viral polymerase protein. […] RNAseH inhibitors from two different chemical classes were employed, compound #1 [2-hydroxyisoquinoline-1,3(2H,4H)-dione], an HID, and #46 (β-thujaplicinol), an α-hydroxytropolone, were tested. Chou-Talaly analysis yields a combination index (CI). CI values<1.0 indicate synergy, CIs of approximately 1.0 indicate additive interactions, and CI values>1.0 indicate antagonism. CI values are calculated at various efficacy levels (EC50, EC75, EC90, and EC95), and a weighted CI value favoring higher efficacy levels is also generated. FIGS. 6A & 6B show the results of four experiments employing compound #1 and three with compound #46. […] Therefore, RNAseH inhibitors act strongly synergistically with an approved nucleos(t)ide analog drug against HBV.

[3] = system: patient-derived RNAseH enzymes (genotypes B, C and D); test: Biochemical RNAseH assay with patient-derived variant enzymes; set-up: species or system Hepatitis B virus
Excerpt: Four variant patient-derived RNAseH enzymes were expressed as recombinant enzymes, purified, and tested in an RNAseH assay with compounds #1 (FIG. 7A) and #46 (FIG. 7B) at their respective IC50s.
HBV has at least 8 genotypes differing in sequence by 8%. Genetic diversity in the RNAseH domain is about 6%, which is easily high enough to modulate viral sensitivity to RNAseH inhibitors. Therefore, the inventors tested the RNAseH inhibitors #1 [2-hydroxyisoquinoline-1,3(2H,4H)-dione], an HID, and #46 (β-thujaplicinol), an α-hydroxytropolone, for the ability to inhibit variant RNAseHs. Twelve purified, patient-derived RNAseH enzymes (4 from each genotypes B, C and D) were tested with the compounds at their respective IC50 values in a biochemical RNAseH assay. […] Therefore, HBV's high genetic variation is unlikely to present a substantial barrier to drug development.

HSV = test: Anti-HSV SAR summary, HSV type not separated; assay type: cell-based, herpes simplex virus; details: grouped by activity at 50, 5 and 0.5 μM
Procedure: as §1
A series of over 20 synthetic αHTs were synthesized and tested to both confirm the initial SAR, and to provide leads for further optimization pursuits (FIG. 5). […] Specifically, biphenyl-containing molecules #118 and 115 inhibit HSV replication by up to 4 log10 at 200 nM. The increased potency over close analogs #111 and 113 confirmed the importance of added lipophilicity.

[4] = Mouse liver microsome assay; assay type: in vitro ADME; details: 1 μM in mouse liver microsomes
Procedure: Microsomal incubations are run at a final P450 concentration of 0.25 μM. The microsomal mixture is composed of 0.1M potassium phosphate containing 3.3 mM MgCl and 1 μM compound (final concentration). The mixture is prewarmed for 5 min at 37° C. To initiate the reaction a 12 mM stock of NAPDH (1.2 mM, final concentration) is added to the warmed microsomal mixture and aliquots are removed at 0, 5, 10, 20 and 30 min. Samples are quenched with ice cold acetonitrile containing internal standard and either 1.8 mM EDTA or EGTA (final concentration). Samples are vortexed and spun down at 3200 rpm for 5 min. The supernant is transferred to 96-deep well plates and run on LC/MS/MS.

HBV = HBV replication assay in HepDES19 cells; assay type: cell-based; details: Hepatitis B virus; HepDES19 cells; read-out: EC50 (HBV assay)
Procedure: HBV replication assay. Inhibition of HBV replication was measured in HepDES19 cells as previously described (Cai, et al., 2014). Cells were seeded into 6-well plates and incubated in DMEM/F12, 10% fetal bovine serum (FBS), 1% penicillin/streptomycin (P/S) with 1 μg/ml tetracycline. Tetracycline was withdrawn after 24 hours. The test compound was applied to duplicate wells 48 hours later in medium containing a final DMSO concentration of 1%, and medium containing the compound was refreshed daily for the following two days. Cells were harvested and non-encapsidated nucleic acids were digested with micrococcal nuclease (New England Biolabs). HBV DNA was purified from capsids using QIAamp Cador Pathogen Mini Kit (Qiagen) with proteinase K incubation overnight at 37° C. TaqMan PCR was performed for 40 cycles at an annealing temperature of 60° C. Primers and probe (IDT Inc.) for the plus-polarity strand were: 5′[…]3′ (SEQ ID NO: 1); 5′[…]3′ (SEQ ID NO: 2); 5′/56-FAM/[…]/ZEN/[…]/3IABkFQ (SEQ ID NO: 3). Primers and probe for the minus-polarity strand were: 5′[…]3′ (SEQ ID NO: 4); 5′[…]3′ (SEQ ID NO: 5); 5′/56-FAM/[…]/ZEN/[…]/3IABkFQ (SEQ ID NO: 6).

[5] = Cytotoxicity reported with the HBV assay (Table 4); assay type: cell-based; details: human, hepatoma cells; read-out: CC50 (HBV assay table)
Procedure: as §2

[6] = 5 μM, moi 0.1, 24 h, vs DMSO, +/− are qualitative, key not given
[7] = 50 μM, moi 0.1, 24 h, vs DMSO, +/−/T are qualitative, key not given

Row | SMILES | inhibition of the TK-mutant strain, in words [1] | CC50 at 24 h [2] [µM] | pEC50 (HSV-1) | log reduction at 5 µM (HSV-1) | log reduction at 50 µM (HSV-1) | inhibition of wild-type HSV-2, in words (HSV-2; 5 μM) | pEC50 (HSV-2) | log reduction at 5 µM (HSV-2) | log reduction at 50 µM (HSV-2) | further results
1 | Nc1nc2c(ncn2COCCO)c(=O)[nH]1 [ACV, Acyclovir, reference compound] | little effect | > 100 |  |  |  |  |  |  |  | log reduction at 5 µM (HSV-1; [6]): 4.22; log reduction at 50 µM (HSV-1; [7]): 5.39; log reduction at 5 µM (HSV-2; [6]): 3.6; log reduction at 50 µM (HSV-2; [7]): 4.73
2 | O=C1Cc2ccccc2C(=O)N1O [Compound 1, 2-hydroxyisoquinoline-1,3(2H,4H)-dione] |  |  |  |  |  |  |  |  |  | weighted CI value (combination index) with Lamivudine (HBV replication): 0.70±0.1; inhibition of four genotype D RNAseH enzymes ([3]; compound at its IC50, FIGS. 7A & 7B): about 50%; inhibition of all 12 variant RNAseH enzymes, in words ([3]; compound at its IC50, genotypes B, C and D): Equivalent results
3 | Cc1cc(O)c(=O)c(O)cc1-c1ccc(-c2ccccc2)cc1 [Compound 115] | efficiently inhibited | > 100 | 6.89 | 4.26 | 4.14 | efficiently inhibited | 6.89 | 4.52 | 5.11 | anti-HSV SAR group, in words (HSV): highly inhibitory at much lower concentrations; also recorded: fully inhibitory at 0.5 μM; Non-P450 turn-over [4]: No; half-life at 1 μM ([4]; read-out: t ½): 18 min; ER ([4]; extraction ratio): 0.76; CLint scaled at 1 μM ([4]; mouse, liver microsomes): 285 mL/min/kg; predicted hepatic clearance at 1 μM ([4]; mouse, liver microsomes, read-out: CL ′hep): 68 mL/min/kg
4 | COC(=O)c1c(C)cc(O)c(=O)c(O)c1O [Compound 196] | efficiently inhibited | > 100 | 7.00 | 4.17 | 3.99 | efficiently inhibited | 5.59 | 4.05 | 4.56 | log reduction at 1.5 µM (HSV-1; read-out: HSV-1 Log suppression 1.5 μM): 3.82; pEC50 (HBV): 5.19; CC50 at 24 h [5]: 13 µM
